Experimental data from patent US12702691B2, “Extract of an herbal composition as antimicrobial and/or antibiofilm agent” (ALPHANOSOS S.A.S., priority 2016, dated 2026).

How the values were obtained:
B-A17 = experiment: Planktonic growth with extract and antibiotic relative to growth without both (Example 14); type: cell-based
Method: (§1) Starting from the herbal composition, the corresponding water extracts (or processed samples) was prepared according to the previously described Method B using 2.06 g of the above herbal composition with 40 mL water with 100 g/L sucrose for water extraction and including the decantation step before filtration. In an independent water extract preparation without sucrose, it has been measured that 2.06 g/40 mL of herbal composition corresponds to 14.5 g/L as deduced from the weight of the lyophilized dry herbal extract.
(§2) In Example 14 we calculate the growth of the bacteria in presence of antibiotic and/or herbal mix relative to the growth in the absence of both antibiotic and herbal mix extract.

B-A21 = experiment: as above; type: cell-based
Method: as §1, §2

[1] = M[20C]-576 0 μg/mL, antibiotic 3.91 μg/mL
[2] = M[20C]-576 0 μg/mL, antibiotic 7.81 μg/mL
[3] = M[20C]-576 0 μg/mL, antibiotic 15.63 μg/mL
[4] = M[20C]-576 0 μg/mL, antibiotic 31.25 μg/mL
[5] = M[20C]-576 0 μg/mL, antibiotic 62.50 μg/mL
[6] = M[20C]-576 0 μg/mL, antibiotic 125 μg/mL
[7] = M[20C]-576 0 μg/mL, antibiotic 250 μg/mL
[8] = M[20C]-576 0 μg/mL, antibiotic 500 μg/mL
[9] = M[20C]-576 0 μg/mL, antibiotic 1000 μg/mL
[10] = M[20C]-576 0 μg/mL, antibiotic 2000 μg/mL
[11] = M[20C]-576 0 μg/mL, antibiotic 4000 μg/mL
[12] = M[20C]-576 90.6 μg/mL, antibiotic 3.91 μg/mL
[13] = M[20C]-576 90.6 μg/mL, antibiotic 7.81 μg/mL
[14] = M[20C]-576 90.6 μg/mL, antibiotic 15.63 μg/mL
[15] = M[20C]-576 90.6 μg/mL, antibiotic 31.25 μg/mL
[16] = M[20C]-576 90.6 μg/mL, antibiotic 62.50 μg/mL
[17] = M[20C]-576 90.6 μg/mL, antibiotic 125 μg/mL
[18] = M[20C]-576 90.6 μg/mL, antibiotic 250 μg/mL
[19] = M[20C]-576 90.6 μg/mL, antibiotic 500 μg/mL
[20] = M[20C]-576 90.6 μg/mL, antibiotic 1000 μg/mL
[21] = M[20C]-576 90.6 μg/mL, antibiotic 2000 μg/mL
[22] = M[20C]-576 90.6 μg/mL, antibiotic 4000 μg/mL
[23] = M[20C]-576 181.3 μg/mL, antibiotic 3.91 μg/mL
[24] = M[20C]-576 181.3 μg/mL, antibiotic 7.81 μg/mL
[25] = M[20C]-576 181.3 μg/mL, antibiotic 15.63 μg/mL
[26] = M[20C]-576 181.3 μg/mL, antibiotic 31.25 μg/mL
[27] = M[20C]-576 181.3 μg/mL, antibiotic 62.50 μg/mL
[28] = M[20C]-576 181.3 μg/mL, antibiotic 125 μg/mL
[29] = M[20C]-576 181.3 μg/mL, antibiotic 250 μg/mL
[30] = M[20C]-576 181.3 μg/mL, antibiotic 500 μg/mL
[31] = M[20C]-576 181.3 μg/mL, antibiotic 1000 μg/mL
[32] = M[20C]-576 181.3 μg/mL, antibiotic 2000 μg/mL
[33] = M[20C]-576 181.3 μg/mL, antibiotic 4000 μg/mL

CN[C@H](CC(C)C)C(=O)N[C@H]1C(=O)N[C@@H](CC(N)=O)C(=O)N[C@H]2C(=O)N[C@H]3C(=O)N[C@H](C(=O)N[C@H](C(=O)O)c4cc(O)cc(O)c4-c4cc3ccc4O)[C@H](O)c3ccc(c(Cl)c3)Oc3cc2cc(c3O[C@@H]2O[C@H](CO)[C@@H](O)[C@H](O)[C@H]2O[C@H]2C[C@](C)(N)[C@H](O)[C@H](C)O2)Oc2ccc(cc2Cl)[C@H]1O [Vancomycin]
planktonic growth relative to the growth in the absence of both extract and antibiotic (B-A17; [1]): 135%
planktonic growth relative to the growth in the absence of both extract and antibiotic (B-A17; [2]): 118%
planktonic growth relative to the growth in the absence of both extract and antibiotic (B-A17; [3]): 114%
planktonic growth relative to the growth in the absence of both extract and antibiotic (B-A17; [4]): 117%
planktonic growth relative to the growth in the absence of both extract and antibiotic (B-A17; [5]): 115%
planktonic growth relative to the growth in the absence of both extract and antibiotic (B-A17; [6]): 116%
planktonic growth relative to the growth in the absence of both extract and antibiotic (B-A17; [7]): 118%
planktonic growth relative to the growth in the absence of both extract and antibiotic (B-A17; [8]): 128%
planktonic growth relative to the growth in the absence of both extract and antibiotic (B-A17; [9]): 117%
planktonic growth relative to the growth in the absence of both extract and antibiotic (B-A17; [10]): 0%
planktonic growth relative to the growth in the absence of both extract and antibiotic (B-A17; [11]): 0%
planktonic growth relative to the growth in the absence of both extract and antibiotic (B-A17; [12]): 65%
planktonic growth relative to the growth in the absence of both extract and antibiotic (B-A17; [13]): 66%
planktonic growth relative to the growth in the absence of both extract and antibiotic (B-A17; [14]): 65%
planktonic growth relative to the growth in the absence of both extract and antibiotic (B-A17; [15]): 74%
planktonic growth relative to the growth in the absence of both extract and antibiotic (B-A17; [16]): 70%
planktonic growth relative to the growth in the absence of both extract and antibiotic (B-A17; [17]): 67%
planktonic growth relative to the growth in the absence of both extract and antibiotic (B-A17; [18]): 66%
planktonic growth relative to the growth in the absence of both extract and antibiotic (B-A17; [19]): 63%
planktonic growth relative to the growth in the absence of both extract and antibiotic (B-A17; [20]): 0%
planktonic growth relative to the growth in the absence of both extract and antibiotic (B-A17; [21]): 0%
planktonic growth relative to the growth in the absence of both extract and antibiotic (B-A17; [22]): 0%
planktonic growth relative to the growth in the absence of both extract and antibiotic (B-A17; [23]): 40%
planktonic growth relative to the growth in the absence of both extract and antibiotic (B-A17; [24]): 41%
planktonic growth relative to the growth in the absence of both extract and antibiotic (B-A17; [25]): 53%
planktonic growth relative to the growth in the absence of both extract and antibiotic (B-A17; [26]): 55%
planktonic growth relative to the growth in the absence of both extract and antibiotic (B-A17; [27]): 55%
planktonic growth relative to the growth in the absence of both extract and antibiotic (B-A17; [28]): 54%
planktonic growth relative to the growth in the absence of both extract and antibiotic (B-A17; [29]): 46%
planktonic growth relative to the growth in the absence of both extract and antibiotic (B-A17; [30]): 47%
planktonic growth relative to the growth in the absence of both extract and antibiotic (B-A17; [31]): −3%
planktonic growth relative to the growth in the absence of both extract and antibiotic (B-A17; [32]): −3%
planktonic growth relative to the growth in the absence of both extract and antibiotic (B-A17; [33]): −2%
planktonic growth relative to the growth in the absence of both extract and antibiotic (B-A21; [1]): 118%
planktonic growth relative to the growth in the absence of both extract and antibiotic (B-A21; [2]): 117%
planktonic growth relative to the growth in the absence of both extract and antibiotic (B-A21; [3]): 113%
planktonic growth relative to the growth in the absence of both extract and antibiotic (B-A21; [4]): 117%
planktonic growth relative to the growth in the absence of both extract and antibiotic (B-A21; [5]): 110%
planktonic growth relative to the growth in the absence of both extract and antibiotic (B-A21; [6]): 102%
planktonic growth relative to the growth in the absence of both extract and antibiotic (B-A21; [7]): 102%
planktonic growth relative to the growth in the absence of both extract and antibiotic (B-A21; [8]): 102%
planktonic growth relative to the growth in the absence of both extract and antibiotic (B-A21; [9]): 0%
planktonic growth relative to the growth in the absence of both extract and antibiotic (B-A21; [10]): 0%
planktonic growth relative to the growth in the absence of both extract and antibiotic (B-A21; [11]): 0%
planktonic growth relative to the growth in the absence of both extract and antibiotic (B-A21; [12]): 102%
planktonic growth relative to the growth in the absence of both extract and antibiotic (B-A21; [13]): 82%
planktonic growth relative to the growth in the absence of both extract and antibiotic (B-A21; [14]): 88%
planktonic growth relative to the growth in the absence of both extract and antibiotic (B-A21; [15]): 77%
planktonic growth relative to the growth in the absence of both extract and antibiotic (B-A21; [16]): 76%
planktonic growth relative to the growth in the absence of both extract and antibiotic (B-A21; [17]): 77%
planktonic growth relative to the growth in the absence of both extract and antibiotic (B-A21; [18]): 74%
planktonic growth relative to the growth in the absence of both extract and antibiotic (B-A21; [19]): 67%
planktonic growth relative to the growth in the absence of both extract and antibiotic (B-A21; [20]): 0%
planktonic growth relative to the growth in the absence of both extract and antibiotic (B-A21; [21]): 0%
planktonic growth relative to the growth in the absence of both extract and antibiotic (B-A21; [22]): 0%
planktonic growth relative to the growth in the absence of both extract and antibiotic (B-A21; [23]): 48%
planktonic growth relative to the growth in the absence of both extract and antibiotic (B-A21; [24]): 63%
planktonic growth relative to the growth in the absence of both extract and antibiotic (B-A21; [25]): 57%
planktonic growth relative to the growth in the absence of both extract and antibiotic (B-A21; [26]): 60%
planktonic growth relative to the growth in the absence of both extract and antibiotic (B-A21; [27]): 57%
planktonic growth relative to the growth in the absence of both extract and antibiotic (B-A21; [28]): 41%
planktonic growth relative to the growth in the absence of both extract and antibiotic (B-A21; [29]): 57%
planktonic growth relative to the growth in the absence of both extract and antibiotic (B-A21; [30]): 32%
planktonic growth relative to the growth in the absence of both extract and antibiotic (B-A21; [31]): −2%
planktonic growth relative to the growth in the absence of both extract and antibiotic (B-A21; [32]): −3%
planktonic growth relative to the growth in the absence of both extract and antibiotic (B-A21; [33]): 0%
